Test results published in patent US20090239841A1, “Diaryl Ureas as CB1 Antagonists” (priority 2004, published 2009).
pIC50: −log10 of the molar value.

Biological target: T1, hCB1 (Homo sapiens, UniProt P21554)
T1 construct: made in house; host or cells: Sf9 insect cells (baculovirus), P2 membranes
Test: Agonist-induced GTP binding (GTPγ35S) assay at CB1, Example 8
Assay type: biochemical
Details: IC50 at CB1, determined as described in Example 8; read-out: IC50
How it was run: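 Membranes from Sf9 cells co-expressing hCB1 and heterotrimeric G-protein (10 μg protein) in Tris pH 7.4 buffer with 5 μM GDP. Test compounds (10^−10–10^−5 M) competed against 1 nM CP55,940 with […] GTPγ35S, 60 min at room temperature. Filter-bound radioactivity by scintillation, expressed as percent above basal.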

T1 sequence (P21554 whole entry): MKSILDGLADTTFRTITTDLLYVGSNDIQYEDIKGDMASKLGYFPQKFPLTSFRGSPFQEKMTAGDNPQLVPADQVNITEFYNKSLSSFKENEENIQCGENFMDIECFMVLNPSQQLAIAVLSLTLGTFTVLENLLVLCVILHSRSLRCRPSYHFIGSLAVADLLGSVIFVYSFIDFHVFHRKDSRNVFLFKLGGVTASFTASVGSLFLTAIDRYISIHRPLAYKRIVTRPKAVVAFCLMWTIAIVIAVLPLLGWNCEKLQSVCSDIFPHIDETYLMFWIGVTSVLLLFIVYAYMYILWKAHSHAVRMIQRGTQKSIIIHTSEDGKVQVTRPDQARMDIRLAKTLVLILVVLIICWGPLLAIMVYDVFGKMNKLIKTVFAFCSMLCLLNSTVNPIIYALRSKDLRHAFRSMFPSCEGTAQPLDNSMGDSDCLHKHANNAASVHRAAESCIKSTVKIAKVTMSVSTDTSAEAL

`COC(=O)c1cccc(NC(=O)Nc2ccc(CC#N)cc2)c1` [Compound 712, methyl 3-[({[4-(cyanomethyl)phenyl]amino}carbonyl)amino]benzoate] showed a pIC50 of over 5.70.

Compound `COC(=O)c1ccc(NC(=O)Nc2ccc(CC#N)cc2)cc1` [Compound 713, methyl 4-[({[4-(cyanomethyl)phenyl]amino}carbonyl)amino]benzoate] has a pIC50 of over 5.70.

For `CCOC(=O)c1cccc(NC(=O)Nc2ccc(CC#N)cc2)c1` [Compound 714, ethyl 3-[({[4-(cyanomethyl)phenyl]amino}carbonyl)amino)benzoate], the pIC50 was over 5.70.

With `CCOC(=O)c1ccc(NC(=O)Nc2ccc(CC#N)cc2)cc1` [Compound 715, ethyl 4-[({[4-(cyanomethyl)phenyl]amino}carbonyl)amino]benzoate] the pIC50 was over 5.70.

Compound `COC(=O)c1cccc(NC(=O)Nc2ccc(OCC#N)cc2)c1` [Compound 716, methyl 3-[({[4-(cyanomethoxy)phenyl]amino}carbonyl)amino] benzoate] has a pIC50 of over 5.70.

`COC(=O)c1ccc(NC(=O)Nc2ccc(OCC#N)cc2)cc1` [Compound 717, methyl 4-[({[4-(cyanomethoxy)phenyl]amino}carbonyl)amino] benzoate] showed a pIC50 of over 5.70.

`CCOC(=O)c1cccc(NC(=O)Nc2ccc(OCC#N)cc2)c1` [Compound 718, ethyl 3-[({[4-(cyanomethoxy)phenyl]amino}carbonyl)amino]benzoate] gave a pIC50 of over 5.70.

For `CCOC(=O)c1ccc(NC(=O)Nc2ccc(OCC#N)cc2)cc1` [Compound 719, ethyl 4-[({[4-(cyanomethoxy)phenyl]amino}carbonyl)amino]benzoate], the pIC50 was over 5.70.

For `CCC(=O)c1ccc(NC(=O)Nc2cccc(C(=O)OC)c2)cc1` [Compound 720, methyl 3-({[(4-propionylphenyl)amino]carbonyl}amino)benzoate], the pIC50 was over 5.70.

Compound `CCOC(=O)c1cccc(NC(=O)Nc2ccc(C(=O)CC)cc2)c1` [Compound 721, ethyl 3-({[(4-propionylphenyl)amino]carbonyl}amino)benzoate] has a pIC50 of over 5.70.

Compound `CCOC(=O)c1ccc(NC(=O)Nc2cccc(C(=O)OCC)c2)cc1` [Compound 722, ethyl 3-[({[4-(ethoxycarbonyl)phenyl]amino}carbonyl)amino] benzoate] has a pIC50 of over 5.70.

Work on `CCOC(=O)c1cccc(NC(=O)Nc2ccc(S(C)(=O)=O)cc2)c1` [Compound 723, ethyl 3-[({[4-(methylsulfonyl)phenyl]amino}carbonyl)amino] benzoate] yielded a pIC50 of over 5.70.

`COC(=O)c1ccc(NC(=O)Nc2ccc(C(=O)OC(C)C)cc2)cc1` [Compound 724, isopropyl methyl 4,4′-(carbonyldiimino)dibenzoate] showed a pIC50 of over 5.70.

For `CCOC(=O)c1cccc(NC(=O)Nc2ccc(C(=O)OC(C)C)cc2)c1` [Compound 725, ethyl 3-[({[4-(isopropoxycarbonyl)phenyl]amino}carbonyl)amino] benzoate], the pIC50 was over 5.70.

For `Cc1ccc(NC(=O)Nc2ccc(CC#N)cc2)cc1C` [Compound 726, 1-[4-(cyanomethyl)phenyl]-3-(3,4-dimethylphenyl)urea], the pIC50 was over 5.70.

Compound `Cc1ccc(NC(=O)Nc2ccc(CC#N)cc2)cc1F` [Compound 727, 1-[4-(cyanomethyl)phenyl]-3-(3-fluoro-4-methylphenyl)urea] has a pIC50 of over 5.70.

`N#CCc1ccc(NC(=O)Nc2ccc(F)c(F)c2)cc1` [Compound 728, 1-[4-(cyanomethyl)phenyl]-3-(3,4-difluorophenyl)urea] gave a pIC50 of over 5.70.

`Cc1ccc(NC(=O)Nc2ccc(OCC#N)cc2)cc1C` [Compound 729, 1-[4-(cyanomethoxy)phenyl]-3-(3,4-dimethylphenyl)urea] showed a pIC50 of over 5.70.

Work on `Cc1ccc(NC(=O)Nc2ccc(OCC#N)cc2)cc1F` [Compound 730, 1-[4-(cyanomethoxy)phenyl]-3-(3-fluoro-4-methylphenyl)urea] yielded a pIC50 of over 5.70.

`Cc1cc(NC(=O)Nc2ccc(OCC#N)cc2)ccc1F` [Compound 731, 1-[4-(cyanomethoxy)phenyl]-3-(4-fluoro-3-methylphenyl)urea] showed a pIC50 of over 5.70.

`N#CCOc1ccc(NC(=O)Nc2ccc(F)c(F)c2)cc1` [Compound 732, 1-[4-(cyanomethoxy)phenyl]-3-(3,4-difluorophenyl)urea] was tested, and the pIC50 was over 5.70.

In the case of `CCC(=O)c1ccc(NC(=O)Nc2ccc(C)c(C)c2)cc1` [Compound 733, 1-(3,4-dimethylphenyl)-3-(4-propionylphenyl)urea], the pIC50 was over 5.70.

Compound `CCC(=O)c1ccc(NC(=O)Nc2ccc(C)c(F)c2)cc1` [Compound 734, 1-(3-fluoro-4-methylphenyl)-3-(4-propionylphenyl)urea] has a pIC50 of over 5.70.

For `CCC(=O)c1ccc(NC(=O)Nc2ccc(F)c(C)c2)cc1` [Compound 735, 1-(4-fluoro-3-methylphenyl)-3-(4-propionylphenyl)urea], the pIC50 was over 5.70.

`CCOC(=O)c1ccc(NC(=O)Nc2ccc(C)c(F)c2)cc1` [Compound 737, ethyl 4-({[(3-fluoro-4-methylphenyl)amino]carbonyl}amino)benzoate] was tested, and the pIC50 was over 5.70.

`CCOC(=O)c1ccc(NC(=O)Nc2ccc(F)c(C)c2)cc1` [Compound 738, ethyl 4-({[(4-fluoro-3-methylphenyl)amino]carbonyl}amino)benzoate] was tested, and the pIC50 was over 5.70.

In the case of `CCOC(=O)c1ccc(NC(=O)Nc2ccc(F)c(F)c2)cc1` [Compound 739, ethyl 4-({[(3,4-difluorophenyl)amino]carbonyl}amino)benzoate], the pIC50 was over 5.70.

`Cc1ccc(NC(=O)Nc2ccc(C(=O)OC(C)C)cc2)cc1F` [Compound 740, isopropyl 4-({[(3-fluoro-4-methylphenyl)amino]carbonyl}amino)benzoate] gave a pIC50 of over 5.70.

Work on `N#CCOc1ccc(NC(=O)Nc2cc(F)cc(F)c2)cc1` [Compound 743, 1-[4-(cyanomethoxy)phenyl]-3-(3,5-difluorophenyl)urea] yielded a pIC50 of over 5.70.

`CCC(=O)c1ccc(NC(=O)Nc2cc(F)cc(F)c2)cc1` [Compound 744, 1-(3,5-difluorophenyl)-3-(4-propionylphenyl)urea] gave a pIC50 of over 5.70.

For `COC(=O)c1ccc(NC(=O)Nc2cccc(O)c2)cc1` [Compound 745, methyl 4-({[(3-hydroxyphenyl)amino]carbonyl}amino)benzoate], the pIC50 was over 5.70.

With `CCOC(=O)c1ccc(NC(=O)Nc2cccc(O)c2)cc1` [Compound 746, ethyl 4-({[(3-hydroxyphenyl)amino]carbonyl}amino)benzoate] the pIC50 was over 5.70.

In the case of `COC(=O)c1ccc(NC(=O)Nc2ccc(O)cc2)cc1` [Compound 747, methyl 4-({[(4-hydroxyphenyl)amino]carbonyl}amino)benzoate], the pIC50 was over 5.70.

Compound `CCOC(=O)c1ccc(NC(=O)Nc2ccc(O)cc2)cc1` [Compound 748, ethyl 4-({[(4-hydroxyphenyl)amino]carbonyl}amino)benzoate] has a pIC50 of over 5.70.

Work on `CCOC(=O)c1ccc(NC(=O)Nc2ccc(CO)cc2)cc1` [Compound 749, ethyl 4-[({[4-(hydroxymethyl)phenyl]amino}carbonyl)amino] benzoate] yielded a pIC50 of over 5.70.

For `CCOC(=O)c1ccc(NC(=O)Nc2ccc(C(C)O)cc2)cc1` (centres unmarked) [Compound 750, ethyl 4-[({[4-(1-hydroxyethyl)phenyl]amino}carbonyl)amino] benzoate], the pIC50 was over 5.70.

With `CCOC(=O)c1ccc(NC(=O)Nc2cccc(CCO)c2)cc1` [Compound 751, ethyl 4-[({[3-(2-hydroxyethyl)phenyl]amino}carbonyl)amino] benzoate] the pIC50 was over 5.70.

`COC(=O)c1ccc(NC(=O)Nc2ccc(CCO)cc2)cc1` [Compound 752, methyl 4-[({[4-(2-hydroxyethyl)phenyl]amino}carbonyl)amino] benzoate] showed a pIC50 of over 5.70.

Work on `CCOC(=O)c1cccc(NC(=O)Nc2ccc(CCO)cc2)c1` [Compound 753, ethyl 3-[({[4-(2-hydroxyethyl)phenyl]amino}carbonyl)amino] benzoate] yielded a pIC50 of over 5.70.

`CCOC(=O)c1ccc(NC(=O)Nc2ccc(CCO)cc2)cc1` [Compound 754, ethyl 4-[({[4-(2-hydroxyethyl)phenyl]amino}carbonyl)amino] benzoate] gave a pIC50 of over 5.70.

With `COC(=O)c1ccc(NC(=O)Nc2cccc(OCCO)c2)cc1` [Compound 755, methyl 4-[({[3-(2-hydroxyethoxy)phenyl]amino}carbonyl)amino] benzoate] the pIC50 was over 5.70.

In the case of `CCOC(=O)c1cccc(NC(=O)Nc2cccc(OCCO)c2)c1` [Compound 756, ethyl 3-[({[3-(2-hydroxyethoxy)phenyl]amino}carbonyl)amino] benzoate], the pIC50 was over 5.70.

`CCOC(=O)c1ccc(NC(=O)Nc2cccc(OCCO)c2)cc1` [Compound 757, ethyl 4-[({[3-(2-hydroxyethoxy)phenyl]amino}carbonyl)amino] benzoate] gave a pIC50 of over 5.70.

With `CCOC(=O)c1ccc(NC(=O)Nc2ccc(OCC(C)O)cc2)cc1` (centres unmarked) [Compound 758, ethyl 4-[({[4-(2-hydroxypropoxy)phenyl]amino}carbonyl)amino] benzoate] the pIC50 was over 5.70.

`Cc1ccc(NC(=O)Nc2cccc(O)c2)cc1F` [Compound 759, 1-(3-fluoro-4-methylphenyl)-3-(3-hydroxyphenyl)urea] gave a pIC50 of over 5.70.

`Cc1ccc(NC(=O)Nc2ccc(O)cc2)cc1F` [Compound 760, 1-(3-fluoro-4-methylphenyl)-3-(4-hydroxyphenyl)urea] showed a pIC50 of over 5.70.

`Cc1ccc(NC(=O)Nc2ccc(CCO)cc2)cc1C` [Compound 761, 1-(3,4-dimethylphenyl)-3-[4-(2-hydroxyethyl)phenyl]urea] was tested, and the pIC50 was over 5.70.

`Cc1ccc(NC(=O)Nc2cccc(OCCO)c2)cc1F` [Compound 762, 1-(3-fluoro-4-methylphenyl)-3-[3-(2-hydroxyethoxy)phenyl]urea] showed a pIC50 of over 5.70.

`Cc1ccc(NC(=O)Nc2ccc(OCC(C)O)cc2)cc1F` (centres unmarked) [Compound 763, 1-(3-fluoro-4-methylphenyl)-3-[4-(2-hydroxypropoxy)phenyl]urea] showed a pIC50 of over 5.70.

In the case of `CCOC(=O)c1ccc(NC(=O)Nc2ccccc2Br)cc1` [Compound 764, ethyl 4-({[(2-bromophenyl)amino]carbonyl}amino)benzoate], the pIC50 was over 5.70.
